{"source": "patent US9839606B2", "about": "“Formulation for treatment of hairs” (OSMA Cosmetics & Laboratories AG, priority 2013, dated 2017)", "origin": "cited, not measured here", "key": {"[1]": {"system": "human dermal papilla cells (DPCs)"}, "[2]": {"system": "hair follicles"}}, "data": [{"substance": "epigallocatechin-3-gallate [EGCG]", "values": [{"measurement": "proliferation of cultured DPCs", "setting": "[1]", "value": "promoted"}, {"measurement": "hair growth in hair follicles ex vivo culture", "setting": "[2]", "value": "promoted hair growth"}]}]}
